# Source: US20230414715A1, “TRAIL COMPOUNDS FOR REDUCING CANCER TREAMENT SIDE EFFECTS” (BROWN UNIVERSITY, priority 2022, published 2023)
# Entries after “also recorded” stand apart in the source; their conditions may differ.
# What was measured:
# C57B1/6 mice = experiment: Radiation pneumonitis after whole-thorax x-ray irradiation, H&E of lung, wild-type mice; type: in vivo, mouse
# Procedure: However, before embarking on the planned experiment, we decided to perform a preliminary, short-term treatment feasibility experiment to ensure some mouse survival after 20 Gy of thoracic irradiation (FIG. 1B). The preliminary experiment was performed with WT and DR5-null mice that were irradiated with 20 Gy, and this was followed by either weekly doses of TIC10/ONC201 (100 mg/kg for total of two doses) or twice a week doses of TLY012 (10 mg/kg for total of four doses) for 2 weeks.
# (§1) Animal studies were carried out at Brown University facilities with approval from Brown University IACUC. C57B1/6 mice (Taconic), mice with bi-allelic loss of TRAIL Death Receptor-(DR5-/-) in a C57B1/6 background, and mice with bi-allelic loss of TRAIL (TRAIL -/-) in a C57B1/6 background were given a single whole-thorax x-ray (Philips RT250) irradiation dose of 20 Gy with shielding of other organs. 8-15-week-old male and female mice of each genotype were used. […] Treatment was continued for two weeks, where TLY012 was administered twice a week and ONC201 was administered once a week. For each genetic background, two mice received a control PO, two mice received TLY012 IP, and two mice received ONC201 PO. Mice were weighed twice a week, and 13 days post-irradiation all mice were euthanized. Organs were harvested from the mice and 600 μL of blood was collected via cardiac puncture for serum cytokine analysis. Organs were preserved in 10% formalin then embedded in paraffin and sectioned at a distance of 5 μm. […] TRAIL-/- female mice were also subjected to a survival study with a single whole-thorax radiation doses of 15 Gy or 18 Gy treated with the same regimen of TLY012 or control (n=2/radiation dose/treatment) (FIG. 3B). In order to determine the lethal dose of radiation for C57B1/6 mice, female C57B1/6 mice were treated with a single dose of whole-thorax irradiation of 25 Gy in a survival study where they were treated with either TLY012 or remained control (n=6/treatment) (FIG. 3C).
# TRAIL-/- female mice = experiment: In vivo respiration-gated microCT imaging of lungs; parameters: species or system mouse; conditions: 15 Gy
# Procedure: For μCT imaging, all mice were imaged in a SkyScan 1276 in vivo microCT scanner (Bruker, Kontich, Belgium) under isoflurane at 41 μm voxels with a 0.7° rotation step in supine position. […] Mice underwent μCT scans 13 days post irradiation. Image-based respiratory gating was used to sort images into gates based on specific time points of the breathing cycle to minimize motion artifact in the final reconstruction. For 3D reconstruction, Dataviewer version 1.5.4 (Bruker) was used to sort the CT images using the function “Listmode Scan” grouping the images in each bin where bin 0=maximum exhale and bin 3=maximum inhale (empty views <10%). Once the images were sorted, the listmode dataset was opened in NRecon software (Bruker) where the ROI undergoes 3D reconstruction. Reconstructed images were then analyzed in CTAn software (Bruker) where the volume of the lungs was calculated during max inhale and max exhale. The plugins in the custom processing page were used to create an ROI that separated the lungs from the rest of the image. 3D reconstructed images of the lung only were then opened in CTvol software (Bruker) where the color (red=69%, green=50%, blue=50%) and the opacity (7%) of the lung was changed.
# female C57B1/6 mice = experiment: 48-hour post-radiation TLY012 treatment; type: in vivo, mouse; conditions: 20 Gy, 10 mg/kg twice a week, preliminary results
# Excerpt: Mice were weighed twice a week, and then euthanized on day 13 post-irradiation. […] H&E-stained slides of the lungs were imaged at 20× magnification.
# serum cytokines [1] = experiment: Serum cytokine analysis in the NanoString cohort; type: in vivo, mouse
# Procedure: (§2) All mouse serum samples were analyzed by a custom R&D systems Murine Premixed Multi- Analyte Kit (R&D Systems, Inc., Minneapolis, MN). The panel was run on a Luminex 200 Instrument (Luminex Corporation, Austin, TX) according to the manufacturer's instructions. Murine serum levels of Angiopoietin-2, BAFF/BLyS/TNFSF13B, CCL2/JE/MCP-1, CCL3/MIP-1 alpha, CCL4/MIP-1 beta, CCL5/RANTES, CCL7/MCP-3/MARC, CCL11/Eotaxin, CCL12/MCP-5, CCL20/MIP-3 alpha, CCL21/6Ckine, CCL22/MDC, Chitinase 3-like 1, CXCL1/GRO alpha/KC/CINC-1, CXCL10/IP-10/CRG-2, CXCL12/S DF- 1 alpha, Dkk-1, FGF basic/FGF2/bFGF, GDF-15, GM-CSF, Granzyme B, IFN-gamma, IGF-I/IGF-1, IL-1 alpha/IL-1F1, IL-1 beta/IL-1F2, IL-2, IL-3, IL-4, IL-6, IL-7, IL-10, IL-13, IL-16, IL-17/IL-17A, IL-27, IL-33 M-CSF, MMP-3, MMP-8, MMP-12, Prolactin, TWEAK/TNFSF12, VEGF, and VEGFR2/KDR/Flk-1 were measured. Analyte values were reported in picograms per milliliter (pg/mL). […] Latent TGF-β was activated in samples using 1 N HCl and samples were neutralized with 1.2 N NaOH/0.5 M HEPES. Samples were assayed immediately after neutralization.
# One hour before radiation mice were grouped into control or given 10 mg/kg of TLY012 via IP injection (n=3/gender/treatment). Mice were treated and weighed twice a week up until 11 days post-radiation when all mice were euthanized.
# Rodent sacrifice was performed following anesthetization with 100 mg/kg ketamine and 10 mg/kg xylazine administered intraperitoneally. ˜400-600 μL blood was first collected throughcardiac puncture with a 26G ⅝″ needle through the intercostal space into the left ventricle. […] 1 mL of 2 mg/mL EDTA in PBS was injected through the right ventricle to perfuse the lungs, after which the lungs were excised, washed further in PBS, submerged in RNAlater (Sigma-Aldrich, #R0901, Missouri, USA), and flash frozen in liquid nitrogen.
# serum cytokines [2] = experiment: Serum cytokine analysis (Luminex) of irradiated mice; type: in vivo, mouse; conditions: treated versus control
# Procedure: as §1, §2
# [3] = tested on: e0771 orthotopic breast tumors in C57B1/6 mice; experiment: Orthotopic e0771 breast tumor model with 20 Gy whole-thorax irradiation
# Procedure: C57B1/6 female mice (Taconic) were injected with 100,000 cells of murine breast cancer (e0771) in the right second mammary fat pad on day 0 of the experiment. […] Each group (n=3) also received a single whole-thorax x-ray irradiation dose of 20 Gy with shielding of other organs. One group (n=3) received no treatment and no radiation. The long axis and short axis of the tumors were measured using calipers and recorded twice a week. On day 18 all mice were euthanized at a humane endpoint, which was defined by 20% weight loss and/or a tumor volume of 2000 mm^3 (˜10% of body weight). Organs and tumors were harvested from the mice and 600 μL of blood was collected via cardiac puncture for serum cytokine analysis. Once tumors were extracted, they were weighed and measured to determine final volume and weight. Pulse oximeter readings were taken initially before radiation treatment and before sacrifice 9 days post-radiation (MouseSTAT Jr. Pulse Oximeter, Kent Scientific). When mice were under anesthesia the sensor of the MouseSTAT Jr. was placed on the hind right paw for 30 seconds. The highest and lowest values shown by the pulse oximeter during this time were recorded and then averaged together. The mean of all the averages per treatment group was then calculated.
# [4] = NanoString cohort, FIG. 5C, relative to untreated control
substance,measurement,setting,value
TLY012: N-terminal PEGylated recombinant human TRAIL; PEGylated trimeric TRAIL formulation,protection from pneumonitis,"C57B1/6 mice; WT mice, 20 Gy thoracic irradiation, preliminary experiment, 2 weeks treatment, versus irradiated control, FIG. 1C",qualitative evidence of protection from pneumonitis
same,rescue from radiation-induced pneumonitis,"C57B1/6 mice; irradiated C57B1/6 mice, FIG. 2",could rescue mice from radiation-induced pneumonitis
same,3D reconstruction of lungs: clarity and visible airway space,"TRAIL-/- female mice; same opacity conditions, FIG. 7B",overall clearer and have more visible airway space
same,lung expansion upon inhalation (μCT),"TRAIL-/- female mice; twice weekly treatment, two weeks post irradiation, versus 15 Gy control, FIG. 7A",expand more upon inhalation
same,rescue when treatment starts 48 hours after irradiation,female C57B1/6 mice,some rescue is possible
same,CCL3/MIP-lalpha serum level,serum cytokines [1]; [4],decrease
same,GDF-15 serum level,serum cytokines [1]; [4],decrease
same,IL-1beta serum level,serum cytokines [1]; [4],increase
same,fold-change in the cytokine levels of inflammatory markers in serum,serum cytokines [1]; serum taken 3 days after last administration,no statistically significant fold-change
same,CCL3/MIP-lalpha serum level,serum cytokines [2],increased
same,CXCL1 serum level,serum cytokines [2],increased
same,FGF basic serum level,serum cytokines [2],increase
same,GDF-15 serum level,serum cytokines [2],increased
same,IL6 serum level,serum cytokines [2],increased
same,MMP-8 serum level,serum cytokines [2],increased
same,effect on anti-tumor efficacy of radiation (tumor weight and volume),"[3]; 20 Gy on day 9, treatment days 9, 12, 16, sacrifice day 18, FIG. 6B, C","no evidence that ONC201, TLY012 or their combination reduced efficacy of treatment"
same,alveolar-wall thickness (H&E),[3]; 9 days post irradiation,reduction
same,lung inflammation (H&E),[3]; 9 days post irradiation,decreased inflammation
same,oxygen saturation (pulse oximetry),"[3]; 9 days post-radiation, versus irradiated mice without further treatment, FIG. 6D",more conserved; also recorded: partially rescued
same,CCL22/MDC levels,"[3]; irradiated tumor-bearing mice, versus irradiated control, FIG. 6E",significant decrease; also recorded: reduction; also recorded: Reduced
same,rescue from radiation induced pneumonitis,"[3]; tumor-bearing mice, 20 Gy",more potent by TLY012 than with ONC201
